Where a SMILES comes first, the peptide text is derived from it.
Tested on: B16F10 cells
Assay: MTT assay, cell viability
Assay type: cell-based, mouse
Conditions: different concentrations, 24, 48 or 72 hours
Procedure: B16F10 is a melanoma cell line isolated from mouse skin (American Type Culture Collection, USA) and was cultured in phenol red-free Dulbecco's Modified Eagle Medium (DMEM) containing 10% (v/v) FBS and penicillin/streptomycin (100 IU/[…]) in 5% CO2 at 37° C.
The cells (2×10^3) in 100 μl complete DMEM were seeded in 96-well plates and treated with the peptide of SEQ ID NO: 1 at different concentrations. The cells treated with ddH2O was used as controls. Ten microliters of 5 mg/ml 3-(4,5-dimethyl-2-thiazolyl)-2,5-diphenyl-2H-tetrazolium bromide solution (MTT; Sigma) was added to each well and incubated at 37° C. for 3 hours. After that, 100 μl 10% SDS in 0.01N HCl was added to dissolve the MTT formazan crystals. The resultant optical density was measured by spectrophotometry at dual wavelengths, 550 and 630 nm.

C[C@H](NC(=O)[C@H](CO)NC(=O)[C@@H](N)CC(N)=O)C(=O)N[C@H](C(=O)N[C@@H](CCC(=O)O)C(=O)N[C@@H](CCCNC(=N)N)C(=O)N[C@@H](CCC(=O)O)C(=O)O)[C@@H](C)O [peptide of SEQ ID NO: 1, AsnSerAlaThrGluArgGlu] (H-NSATERE-OH)
cell viability (MTT) (FIG. 3): did not significantly affect the viability | cell viability (MTT) (FIG. 3, listed as peptide having the amino acid sequence of SEQ ID NO: 1): did not significantly affect viability
